Tests used:
male ICR mice = test: Formalin Paw Test; format: in vivo
Description: One test compound or the vehicle was administered to each mouse in each test group (8 mice per group). Non-fasted male ICR mice weighing 23±3 g were used. Compounds of Formula (I) were administered at a concentration of 3 mg/kg, 10 mg/kg, 15 mg/kg, 30 mg/kg, 60 mg/kg, 100 mg/kg, 200 mg/kg or 300 mg/kg; morphine was administered at a concentration of 5 mg/kg; and acetaminophen was administered at a concentration of 200 mg/kg. The control group received the vehicle (5% DMSO/40% PEG400/20% HPbCD/Saline). After 30 or 60 minutes, a 2% formalin solution (0.02 mL) was injected into one hind paw (sub-plantar) of each mouse. Responses were measured every 5 minutes after the formalin injection for 35 minutes.

[1] = system: pooled human liver microsomes; test: Glutathione Conjugation Assay; format: in vitro ADME; conditions: 100 μM test compound, 1 mM glutathione, NADPH, 60 mins at 37° C.
Description: An incubation mixture consisting of 5 μL of 10 mM test compound in DMSO (5 μL of DMSO for negative control; 5 μL of 10 mM acetaminophen in DMSO for positive control), 5 μL of 0.1 M glutathione 25 mM EDTA in water, 50 μL of 100 mM MgCl2 in water, 50 μL of 20 mg/mL pooled human liver microsomes (P-450 content: ˜0.5 nmol/mg protein), and 340 μL of 100 mM potassium phosphate buffer (pH 7.4) was preincubated at 37° C. for 10 mins. The reaction was initiated by the addition of 50 μL of 100 mM NADPH solution. The final incubation volume was 0.5 mL. The incubation mixture contains 100 μM test compound or acetaminophen (positive control), 1 mM glutathione, and 1 μM P450. After 60 mins incubation at 37° C., 1 mL of chilled acetonitrile was added to stop the reaction. After the addition of acetonitrile, the sample was vortexed and centrifuged. The supernatant was collected, concentrated in TurboVap under N2 (10 psi) at 30° C. for 35 mins, and transferred to a 96-well plate. The plate was capped and centrifuged. The supernatant was injected for LC-MS/MS analysis.
As a result, one skilled in the art would not expect compounds of Formula (I) to form the reactive metabolite NAPQI. A 129 neutral loss scan can be used to search or detect the formation of glutathione conjugates.

[2] = 200 mg/kg, administered 30 minutes before formalin injection, acetaminophen 200 mg/kg, FIG. 5

For `CC(=O)NC12CC(C1)C2` [compound 4, N-(bicyclo[1.1.1]pentan-1-yl)acetamide], the “amount less than the amount of acetaminophen needed to achieve the approximate same pain response” value (male ICR mice; 60 mg/kg vs 200 mg/kg acetaminophen) was “about 33%”, the “efficacy compared to acetaminophen, after 25 minutes” value (male ICR mice; [2]) was “increased efficacy compared to acetaminophen” and the “pain response compared to acetaminophen, initial 25 minutes” value (male ICR mice; [2]) was “reduces the pain response in a manner similar to acetaminophen for the initial 25 minutes”. The “dosage providing a pain response approximately equal to 200 mg/kg of acetaminophen” value (male ICR mice; dosages ranging from 3 mg/kg to 100 mg/kg, FIG. 9) was 60 mg/kg, the “pain response compared to acetaminophen, entire testing period” value (male ICR mice; given 60 minutes prior to formalin injection, FIG. 10) was “reduces the pain response in a manner similar to acetaminophen throughout the entire testing period” and the “formation of reactive metabolite NAPQI” value [1] was “NAPQI was not formed”. The “glutathione conjugate peak (129 neutral loss scan, LC-MS/MS)” value [1] was “no glutathione conjugate peak was observed”.

In the case of `CC(=O)NC12CC(NC(C)=O)(C1)C2` [compound 10, N,N′-(bicyclo[1.1.1]pentane-1,3-diyl)diacetamide], the “compound dose as percent of acetaminophen dose giving a lower pain response” value (male ICR mice; 60 mg/kg vs 200 mg/kg acetaminophen, tonic phase) is reported as “about 33%”, the “duration of decrease in pain response (phases)” value (male ICR mice; 200 mg/kg, administered 30 minutes before formalin injection, FIG. 4) is reported as “lasted through both the early/acute phase (0-5 minutes) and the late/tonic phase (20-35 minutes)” and the “pain response compared to acetaminophen and morphine” value (male ICR mice; 200 mg/kg, administered 30 minutes before formalin injection, morphine 5 mg/kg, acetaminophen 200 mg/kg, FIG. 4) is reported as “significantly decreased the pain response compared to both acetaminophen and morphine”. The “efficacy compared to acetaminophen, acute phase” value (male ICR mice; all dosages ranging from 15 mg/kg to 200 mg/kg, FIG. 8) was “equal to or significant increased efficacy compared to acetaminophen”, the “pain response compared to acetaminophen” value (male ICR mice; dosage 200 mg/kg, FIG. 8) was “approximately 50%” and the “dose needed to reduce the pain response to a level less than 200 mg/kg of acetaminophen” value (male ICR mice; tonic phase, FIG. 8) was 60 mg/kg. For the same compound, the “formation of reactive metabolite NAPQI” value [1] was “NAPQI was not formed” and the “glutathione conjugate peak (129 neutral loss scan, LC-MS/MS)” value [1] was “no glutathione conjugate peak was observed”.
